Experimental data reported in patent US20200000871A1, “B-1A LYMPHOCYTE AND/OR MACROPHAGE TARGETING AND ACTIVATION TO TREAT MEDICAL CONDITIONS WITH INFLAMMATORY OR AUTOIMMUNE COMPONENTS” (THE BOARD OF TRUSTEES OF THE LELAND STANFORD JUNIOR …, priority 2015, published 2020).
Where no end group is shown, it is not given here.

How the values were obtained:
peritoneal cells = experiment: Viability of peritoneal cells incubated in vitro with fibrils; format: cell-based, C57BL/6 mice; details: 1.0-0.125 μg/well, 30 or 120 minutes, PI staining
Experimental: FIG. 3. […] Peritoneal cells were isolated by lavage of C57BL/6 mice, aliquoted 500,000 cells per well of a 96 well round bottomed plate and treated with 1.0, 0.5, 0.25, 0.125 μg/well of Amylin 28-33 for 30 minutes or 120 minutes in DMEM with 10% FCS. At the end of the incubation the cells were spun, supernatant aspirated, and the cells were stained with rat anti-mouse CD11b (Pacific Blue), CD5 (PE), CD19 (APC), and incubated for 30 minutes on ice. The cells were washed once, aspirate transferred to FACS tubes, PI added, and analyzed by flow cytometry.

[1] = system: peritoneal cells (B-1a and B-2 lymphocytes, LPMs, T lymphocytes, mast cells); experiment: Binding and endocytosis of FITC-Tau fibrils by peritoneal cells after i.p. injection (confocal microscopy, flow cytometry); format: in vivo, C57BL/6 mice; details: 10 μg i.p., peritoneal cells stained for CD19 and F4/80
Experimental: C57B/6 female mice were injected with FITC-Tau 623-628, and peritoneal cells were isolated after 10 minutes, washed, stained with rat antimouse CD19 (PE), F4/80 (Alexa Fluor 647), and DAPI, washed, and plated on polylysine coated microscope slides. Cells were visualized using a Leica TCS SP8 white light laser confocal microscope.
Peptides were synthesized using solid phase techniques and commercially available Fmoc amino acids, resins, and reagents (PE Biosystems, Foster City Calif., and Bache, Torrance, Calif.) on an Applied Biosystems 433A peptide synthesizer as previously described. Wender et al. (2000) Proc. Natl. Acad. Sci. USA 97(24):13003-13008. […] The molecular weight of the peptides was confirmed using matrix assisted laser desorption mass spectrometry. To prevent excess amounts of fluorophore in the fibrils, Tau 623-628 was mixed at a ratio of 10:1 with an analog with FITC attached to the amino terminus of Tau 623-628 with an amino caproic acid linker. The resulting fibril mixture is referred to in the text as FITC-Tau.
Peritoneal cavity cells were obtained by flushing the peritoneal cavity with 10 ml of cold PBS containing 0.1% bovine serum albumin and 5 mM EDTA. […]

μMT mice with EAE = experiment: EAE in B cell-deficient μMT mice, with or without adoptive transfer of B-1a lymphocytes; format: in vivo; details: 10 μg daily i.p., no cell transfer
Experimental: Induction of active EAE in mice by immunization with MOG and adjuvant. EAE was induced in female wild type C57Bl/6 mice or μMT and IL-10 deficient mice on C57B/6 background (Jackson Laboratories) by procedures previously described. Briefly, EAE was induced at 9 weeks of age by subcutaneous immunization in the flank with an emulsion containing 200 μg myelin oligodendrocyte glycoprotein35-55 (MOG35-55; […] (SEQ ID NO: 1065)) in saline and an equal volume of complete Freund's adjuvant containing […] mycobacterium tuberculosis H37RA (Disco Laboratories). All mice were given 400 ng of pertussis toxin (List Biological) intraperitoneal (i.p.) at 0 and 48 h post-immunization. The signs of neurological impairment were scored as follows: 0, no clinical disease; 1, tail weakness; 2, hindlimb weakness; 3, complete hindlimb paralysis; 4, hindlimb paralysis and some forelimb weakness; 5, moribund or dead. […] For intranasal inoculation, 10 μg of Amylin 28-33 in 10 μl PBS was gradually released into the nostrils of anesthetized mice. All animal protocols were approved by institutional IACUC.
B-1a lymphocytes were purified by cell sorting of peritoneal cells from wild type C57Bl/6 mice. […] Mice were examined daily for clinical signs of EAE and were scored on a five point scale described above.

[2] = system: B-1a lymphocytes and LPMs; experiment: Bioluminescence imaging of trafficking of adoptively transferred luc+ B-1a lymphocytes and LPMs; format: in vivo, C57BL/6 albino mice
Experimental: B-1a lymphocytes and peritoneal MΦs were purified by cell sorting of peritoneal cells isolated from luciferase transgenic mice ((B6.FVB-Ptprca Tg(CAG-luc,-GFP)L2G85Chco Thy1a/J), which express the CAT-luc-eGFP, L2G85 transgene). In the initial experiment 2×10^5 and 1×10^5 B-1a lymphocytes were injected in the peritoneum of C57BL/6 female albino mice (B6(Cg)-Tyr^c-2J/J), followed by injection of 10 μg of Tau 623-628 to activate the lymphocytes, and 0.3 mg/g body weight of luciferin substrate (D luciferin firefly L-8220 Biosynth) to initiate the bioluminescence imaging. The location of the luciferase expressing cells was measured by imaging every 5 minutes for 75 minutes.
To confirm the diminution of luminescence was due to the trafficking of the luc^+ cells, and not the degradation of the luciferin, two C57BL/6 albino mice were injected with […] peritoneal MΦs, a third with 2×10^5 B-1a lymphocytes, and fourth mouse serving as a BLI control was injected with luciferin only. The mice were subsequently injected with 10 μg of Tau 623-628 and 0.3 mg/gram of luciferin. Bioluminescence was measured immediately after the injection of luciferin and 5 minutes later. After thirty minutes the mice were reinjected with luciferin and the resultant luminescence measured. […] Imaging data were analyzed and quantified with Living Image software 4.4 (Xenogen).
Amyloidogenic peptides induce exodus of B-1a lymphocytes and LPM from the peritoneal cavity. […] The location of the luciferase expressing cells was monitored by imaging the mice every 5 minutes for 75 minutes (FIG. 5, top left). The diffuse distribution of the luminescence, corresponding to the peritoneal cavity, seen at early times, was reduced in intensity over time, with focal regions of intensity appearing to localize in inguinal lymph nodes beginning at 35 minutes (FIG. 5, top left). […]
To better assign the basis of the reduction of luminescence to the migration of the luc^+ cells, a second experiment was performed with four recipient mice. […] Bioluminescence was measured immediately after the injection of luciferin and 5 minutes later. […]

[3] = system: B-1a lymphocytes and peritoneal MΦs (SPM, LPM); experiment: Differential gene expression (microarray, qPCR) in sorted B-1a lymphocytes and peritoneal MΦs after i.p. injection; format: in vivo, C57BL/6 mice; details: 10 μg i.p., cells isolated 30-40 minutes after injection
Experimental: Total RNA was extracted from FACS purified B-1a lymphocytes and peritoneal MΦs pooled from 3-6 C57BL/6 female mice injected with 10 μg of LPS, Tau 623-628, Amylin 28-33, or PBS using Trizol reagent and the Qiagen RNeasy micro kit. First strand cDNA was synthesized with 30-50 ng of total RNA using Superscript III first strand synthesis supermix for qRT-PCR. QPCR assays were performed using the 7900HT Fast Real Time PCR System (Applied Biosystems), and the Taqman Gene Expression Arrays (Applied Biosystems) using commercially available primers (ABI). All assays were performed according to manufacturer's instructions. The comparative Ct method for relative quantification (ΔΔCt) was used to compare gene expression. […]
Gene expression changes associated with treatment with LPS, Amylin 28-33, and Tau 623-628, were quantified using a microarray (SurePrint G3 Mouse; Agilent Technologies). […] Analysis and quantitation of the data were done using GeneSpring and Ingenuity software.
To confirm and increase the understanding of how the fibrils are activating the peritoneal cells, differential gene induction in purified B-1a and LPMs was analyzed. […] B-1a lymphocytes (CD19^hiCD5^+CD23^−) and LPMs (CD11b^hi MΦs) from the four groups of three mice were sorted into Trizol, RNA extracted, and gene expression measured using a murine Agilent whole genome expression microchip. […]

PBMCs = experiment: Type 1 IFN response and cytokine production in PBMCs of treated mice; details: mouse, in vivo

SSTNVG [Amylin 28-33, SSTNVG]
cell viability / cell death of peritoneal cells in vitro (peritoneal cells): does not affect cell viability

VQIVYK [Tau 623-628, amyloidogenic hexapeptide of tau, forms amyloid fibrils]
binding and endocytosis of fibrils by B cells and MΦs (confocal microscopy) [1]: bind and are endocytosed
therapeutic effect on paralytic signs of EAE in μMT mice (μMT mice with EAE): neither Tau 623-628, nor Amylin 28-33 was therapeutic
increase in luminescence over inguinal lymph nodes ([2]; 60 min compared with 5 min, luc+ LPMs, 10 μg i.p.): ~10 fold
time at which focal luminescence begins to localize in inguinal lymph nodes ([2]; luc+ B-1a lymphocytes, 10 μg i.p.): 35 min
photons per second in the abdominal region ([2]; luc+ B-1a lymphocytes, over 75 minutes): rapid, dose dependent, reduction of light emitted
pattern of gene expression (microarray heatmap) [3]: induce a different pattern of gene expression than LPS
type 1 IFN induction (PBMCs): induced a type 1 interferon (IFN) response
